Results: paper PMC9898036, “VIP152 is a selective CDK9 inhibitor with pre-clinical in vitro and in vivo efficacy in chronic lymphocytic leukemia” (Leukemia, 2022)

Legend:
[1] = target: T1, GSK3α (Homo sapiens, UniProt P49840); assay: KINOMEscan: GSK3α; format: binding
Method: The structure and synthesis of VIP152 were recently described by Lücking et al.. (Fig. 1A); however, the selectivity of the molecule in cellular systems has yet to be explored. […] We also performed this experiment at 1000 nM, where CDK9 was inhibited at 99%. […] We found a strong concordance between our data and those of Lücking when comparing the most inhibited kinases. Potential off-target effects of VIP152 were next tested in vitro at a concentration of 10 µM for off-target activity against a broad range of receptors, transporters, ion channels, and enzymes (n = 138) using the Eurofins Diversity Panel.
Kinomescan Kinase Profiling Assay
Kinomescan Assay was performed at DiscoverRX and described in Fabian, et al. 2005, Nat.
Biotechnol. In brief, kinases were produced and subsequently tagged with DNA for qPCR detection.
Streptavidin-coated magnetic beads were bound to biotinylated kinase ligands to serve as a solid support.
VIP152 was dissolved in DMSO and tested across a 10 serial threefold dilution set and compared to a test compound and a DMSO control. Kinases which were inhibited by VIP152 would not be bound to the solid-support resulting in decreased substrate for the qPCR reaction. Kinome map was produced via TreeSpot Analysis from DiscoverRX. […]
NanoBRETTM Target Engagement Assay Protocol […]
HEK293 cells were grown to 70-80% confluence appropriately prior to assay and subsequently trypsinized. Lipid:DNA complexes were prepared as follows. A 10µg/mL solution of DNA in Opti-MEM without serum consisting of the following ratios of carrier DNA and DNA encoding NanoLuc fusion were prepared.
9.0µg/mL of Transfection Carrier DNA, 1.0µg/mL of NanoLuc fusion vector DNA, and 1mL of Opti-MEM without phenol red. The solution was mixed thoroughly. Next, 30µL of FuGENE HD Transfection Reagent was added into each mL of DNA mixture to form the lipid:DNA complex and mixed by inversion 10 times followed by a 20 minute incubation at room temperature. […]

[2] = target: T1, GSK3α; assay: NanoBRET target engagement assay (HEK293); format: cell-based
[3] = target: Adenosine A2A (Homo sapiens, UniProt P29274); assay: Eurofins Diversity Panel; format: binding; conditions: hum, Conc. 10 μM
[4] = test system: Calcium Channel L-Type Dihydropyridine; assay: Eurofins Diversity Panel; format: binding; conditions: rat, Conc. 10 μM
[5] = target: Leukotriene, Cysteinyl CysLT1 (Homo sapiens, UniProt Q9Y271); assay: Eurofins Diversity Panel; format: binding; conditions: hum, Conc. 10 μM
[6] = target: Platelet Activating Factor (PAF) (Homo sapiens, UniProt P25105); assay: Eurofins Diversity Panel; format: binding; conditions: hum, Conc. 10 μM
[7] = target: Transporter, Dopamine (DAT) (Homo sapiens, UniProt Q01959); assay: Eurofins Diversity Panel; format: binding; conditions: hum, Conc. 10 μM
[8] = target: RIPK2 (Homo sapiens, UniProt O43353); assay: KINOMEscan: RIPK2; format: binding; conditions: 100 nM, read-out: Percent Control
[9] = target: RPS6KA5(Kin.Dom.1-N-terminal) (Homo sapiens, UniProt O75582); assay: KINOMEscan: RPS6KA5(Kin.Dom.1-N-terminal); format: binding; conditions: 100 nM, read-out: Percent Control
[10] = target: RSK4(Kin.Dom.1-N-terminal) (Homo sapiens, UniProt Q9UK32); assay: KINOMEscan: RSK4(Kin.Dom.1-N-terminal); format: binding; conditions: 100 nM, read-out: Percent Control
[11] = target: ULK3 (Homo sapiens, UniProt Q6PHR2); assay: KINOMEscan: ULK3; format: binding; conditions: 100 nM, read-out: Percent Control
[12] = target: WNK2 (Homo sapiens, UniProt Q9Y3S1); assay: KINOMEscan: WNK2; format: binding; conditions: 100 nM, read-out: Percent Control
[13] = target: AAK1 (Homo sapiens, UniProt Q2M2I8); assay: KINOMEscan: AAK1; format: binding; conditions: 1000 nM, read-out: Percent Control
[14] = target: AKT1 (Homo sapiens, UniProt P31749); assay: KINOMEscan: AKT1; format: binding; conditions: 1000 nM, read-out: Percent Control
[15] = target: BMPR1A (Homo sapiens, UniProt P36894); assay: KINOMEscan: BMPR1A; format: binding; conditions: 1000 nM, read-out: Percent Control
[16] = target: BMX (Homo sapiens, UniProt P51813); assay: KINOMEscan: BMX; format: binding; conditions: 1000 nM, read-out: Percent Control
[17] = target: BRSK2 (Homo sapiens, UniProt Q8IWQ3); assay: KINOMEscan: BRSK2; format: binding; conditions: 1000 nM, read-out: Percent Control
[18] = target: CDKL5 (Homo sapiens, UniProt O76039); assay: KINOMEscan: CDKL5; format: binding; conditions: 1000 nM, read-out: Percent Control
[19] = target: EGFR(S752-I759del) (Homo sapiens, UniProt P00533, DEL752-759); assay: KINOMEscan: EGFR(S752-I759del); format: binding; conditions: 1000 nM, read-out: Percent Control
[20] = target: ERK1 (Homo sapiens, UniProt P27361); assay: KINOMEscan: ERK1; format: binding; conditions: 1000 nM, read-out: Percent Control
[21] = target: ERK2 (Homo sapiens, UniProt P28482); assay: KINOMEscan: ERK2; format: binding; conditions: 1000 nM, read-out: Percent Control
[22] = target: FLT3(D835V) (Homo sapiens, UniProt P36888, D835V); assay: KINOMEscan: FLT3(D835V); format: binding; conditions: 1000 nM, read-out: Percent Control
[23] = target: FLT3-autoinhibited (Homo sapiens, UniProt P36888); assay: KINOMEscan: FLT3-autoinhibited; format: binding; conditions: 1000 nM, read-out: Percent Control
[24] = target: JAK3(JH1domain-catalytic) (Homo sapiens, UniProt P52333); assay: KINOMEscan: JAK3(JH1domain-catalytic); format: binding; conditions: 1000 nM, read-out: Percent Control
[25] = target: LATS1 (Homo sapiens, UniProt O95835); assay: KINOMEscan: LATS1; format: binding; conditions: 1000 nM, read-out: Percent Control

T1 sequence (P49840 whole entry): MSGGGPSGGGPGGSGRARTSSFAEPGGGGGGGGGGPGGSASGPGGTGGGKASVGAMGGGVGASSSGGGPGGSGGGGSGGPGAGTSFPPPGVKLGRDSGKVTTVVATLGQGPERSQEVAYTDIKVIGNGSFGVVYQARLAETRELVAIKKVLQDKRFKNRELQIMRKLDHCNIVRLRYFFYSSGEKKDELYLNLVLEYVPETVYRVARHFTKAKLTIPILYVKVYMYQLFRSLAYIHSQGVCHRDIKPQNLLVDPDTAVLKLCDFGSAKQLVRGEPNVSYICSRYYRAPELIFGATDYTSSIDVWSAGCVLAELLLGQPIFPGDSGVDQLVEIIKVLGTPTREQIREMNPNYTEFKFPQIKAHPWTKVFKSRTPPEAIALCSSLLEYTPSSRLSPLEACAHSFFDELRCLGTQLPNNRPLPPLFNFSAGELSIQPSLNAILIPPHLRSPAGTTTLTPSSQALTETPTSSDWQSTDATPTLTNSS
Leukotriene, Cysteinyl CysLT1, sequence (Q9Y271 whole entry): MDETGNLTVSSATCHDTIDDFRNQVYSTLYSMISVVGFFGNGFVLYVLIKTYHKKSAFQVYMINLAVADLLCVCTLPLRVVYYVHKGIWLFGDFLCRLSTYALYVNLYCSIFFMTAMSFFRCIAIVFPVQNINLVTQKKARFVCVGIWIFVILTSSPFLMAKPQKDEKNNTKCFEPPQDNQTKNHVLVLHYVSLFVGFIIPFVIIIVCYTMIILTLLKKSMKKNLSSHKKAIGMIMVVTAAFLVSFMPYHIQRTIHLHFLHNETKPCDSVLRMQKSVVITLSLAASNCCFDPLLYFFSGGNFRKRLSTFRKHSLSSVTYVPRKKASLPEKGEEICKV
BRSK2, sequence (Q8IWQ3 whole entry): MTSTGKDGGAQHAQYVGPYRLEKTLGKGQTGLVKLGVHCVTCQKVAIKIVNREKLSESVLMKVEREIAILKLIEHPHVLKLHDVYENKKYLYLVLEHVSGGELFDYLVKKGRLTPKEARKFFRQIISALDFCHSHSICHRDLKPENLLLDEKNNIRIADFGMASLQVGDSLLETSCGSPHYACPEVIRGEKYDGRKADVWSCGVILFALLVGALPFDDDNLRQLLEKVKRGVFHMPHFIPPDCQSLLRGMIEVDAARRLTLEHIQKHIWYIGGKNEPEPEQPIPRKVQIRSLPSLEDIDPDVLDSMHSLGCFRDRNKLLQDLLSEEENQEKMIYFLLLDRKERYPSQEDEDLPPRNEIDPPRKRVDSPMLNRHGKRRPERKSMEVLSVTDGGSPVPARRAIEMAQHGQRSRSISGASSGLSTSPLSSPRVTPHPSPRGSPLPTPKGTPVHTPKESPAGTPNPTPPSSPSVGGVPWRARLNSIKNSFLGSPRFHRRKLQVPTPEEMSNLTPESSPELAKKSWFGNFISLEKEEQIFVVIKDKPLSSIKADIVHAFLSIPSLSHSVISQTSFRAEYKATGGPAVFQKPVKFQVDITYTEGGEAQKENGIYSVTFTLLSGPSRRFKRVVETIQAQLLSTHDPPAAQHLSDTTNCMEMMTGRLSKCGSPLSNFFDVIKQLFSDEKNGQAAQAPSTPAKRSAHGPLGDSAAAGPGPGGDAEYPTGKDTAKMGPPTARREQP
RIPK2, sequence (O43353 whole entry): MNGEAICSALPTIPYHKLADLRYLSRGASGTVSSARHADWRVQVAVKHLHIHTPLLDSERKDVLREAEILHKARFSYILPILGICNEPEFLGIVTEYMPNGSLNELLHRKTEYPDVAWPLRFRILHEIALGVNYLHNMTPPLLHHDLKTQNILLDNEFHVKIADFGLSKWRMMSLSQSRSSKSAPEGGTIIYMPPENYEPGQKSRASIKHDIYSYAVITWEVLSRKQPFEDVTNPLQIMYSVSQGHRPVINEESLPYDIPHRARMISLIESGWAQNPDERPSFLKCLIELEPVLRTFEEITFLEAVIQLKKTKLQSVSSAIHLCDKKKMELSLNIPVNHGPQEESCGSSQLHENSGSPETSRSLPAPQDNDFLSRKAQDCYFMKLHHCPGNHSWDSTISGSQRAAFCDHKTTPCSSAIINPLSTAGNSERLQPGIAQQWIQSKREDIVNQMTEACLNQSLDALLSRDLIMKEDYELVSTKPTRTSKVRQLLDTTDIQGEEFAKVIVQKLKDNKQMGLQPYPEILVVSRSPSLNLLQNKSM
Transporter, Dopamine (DAT), sequence (Q01959 whole entry): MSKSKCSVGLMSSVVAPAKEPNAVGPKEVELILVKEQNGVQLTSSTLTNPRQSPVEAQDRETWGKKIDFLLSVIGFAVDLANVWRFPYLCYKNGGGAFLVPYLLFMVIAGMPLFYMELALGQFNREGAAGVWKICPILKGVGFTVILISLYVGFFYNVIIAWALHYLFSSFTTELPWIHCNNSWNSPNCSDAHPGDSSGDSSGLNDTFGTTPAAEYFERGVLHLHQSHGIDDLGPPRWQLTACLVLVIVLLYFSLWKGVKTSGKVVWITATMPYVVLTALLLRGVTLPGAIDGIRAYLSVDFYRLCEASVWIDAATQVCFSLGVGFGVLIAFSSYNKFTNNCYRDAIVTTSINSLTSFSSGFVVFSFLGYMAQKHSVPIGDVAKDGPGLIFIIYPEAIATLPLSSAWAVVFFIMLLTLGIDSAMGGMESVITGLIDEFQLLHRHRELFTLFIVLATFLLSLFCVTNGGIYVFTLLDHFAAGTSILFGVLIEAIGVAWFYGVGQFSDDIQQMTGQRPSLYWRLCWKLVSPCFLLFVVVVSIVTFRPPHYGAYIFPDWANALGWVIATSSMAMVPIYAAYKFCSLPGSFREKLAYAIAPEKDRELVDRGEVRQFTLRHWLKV
CDKL5, sequence (O76039 whole entry): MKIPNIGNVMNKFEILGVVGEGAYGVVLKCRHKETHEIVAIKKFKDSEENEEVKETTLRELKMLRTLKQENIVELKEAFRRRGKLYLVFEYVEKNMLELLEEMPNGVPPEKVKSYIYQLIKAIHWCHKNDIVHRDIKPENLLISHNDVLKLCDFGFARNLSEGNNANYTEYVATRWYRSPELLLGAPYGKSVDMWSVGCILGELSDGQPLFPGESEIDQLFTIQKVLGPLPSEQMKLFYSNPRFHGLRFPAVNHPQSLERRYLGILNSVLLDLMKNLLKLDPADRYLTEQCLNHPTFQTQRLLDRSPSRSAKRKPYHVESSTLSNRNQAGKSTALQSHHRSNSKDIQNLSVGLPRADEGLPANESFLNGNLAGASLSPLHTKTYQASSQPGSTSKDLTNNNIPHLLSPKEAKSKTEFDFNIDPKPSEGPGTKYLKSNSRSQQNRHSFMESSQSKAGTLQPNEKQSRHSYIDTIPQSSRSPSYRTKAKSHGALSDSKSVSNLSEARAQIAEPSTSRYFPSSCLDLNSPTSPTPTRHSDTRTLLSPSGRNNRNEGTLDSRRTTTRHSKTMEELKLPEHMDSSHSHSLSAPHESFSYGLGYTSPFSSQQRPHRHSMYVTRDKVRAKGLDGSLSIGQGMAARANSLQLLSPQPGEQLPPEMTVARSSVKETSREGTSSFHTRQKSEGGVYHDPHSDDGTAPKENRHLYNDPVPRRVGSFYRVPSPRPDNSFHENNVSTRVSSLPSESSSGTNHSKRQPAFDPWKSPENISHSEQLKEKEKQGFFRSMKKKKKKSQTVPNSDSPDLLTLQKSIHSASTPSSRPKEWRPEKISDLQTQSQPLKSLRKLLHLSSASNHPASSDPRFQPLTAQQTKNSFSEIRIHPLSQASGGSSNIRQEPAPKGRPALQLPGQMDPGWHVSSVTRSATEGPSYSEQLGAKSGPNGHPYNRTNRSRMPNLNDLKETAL
AAK1, sequence (Q2M2I8 whole entry): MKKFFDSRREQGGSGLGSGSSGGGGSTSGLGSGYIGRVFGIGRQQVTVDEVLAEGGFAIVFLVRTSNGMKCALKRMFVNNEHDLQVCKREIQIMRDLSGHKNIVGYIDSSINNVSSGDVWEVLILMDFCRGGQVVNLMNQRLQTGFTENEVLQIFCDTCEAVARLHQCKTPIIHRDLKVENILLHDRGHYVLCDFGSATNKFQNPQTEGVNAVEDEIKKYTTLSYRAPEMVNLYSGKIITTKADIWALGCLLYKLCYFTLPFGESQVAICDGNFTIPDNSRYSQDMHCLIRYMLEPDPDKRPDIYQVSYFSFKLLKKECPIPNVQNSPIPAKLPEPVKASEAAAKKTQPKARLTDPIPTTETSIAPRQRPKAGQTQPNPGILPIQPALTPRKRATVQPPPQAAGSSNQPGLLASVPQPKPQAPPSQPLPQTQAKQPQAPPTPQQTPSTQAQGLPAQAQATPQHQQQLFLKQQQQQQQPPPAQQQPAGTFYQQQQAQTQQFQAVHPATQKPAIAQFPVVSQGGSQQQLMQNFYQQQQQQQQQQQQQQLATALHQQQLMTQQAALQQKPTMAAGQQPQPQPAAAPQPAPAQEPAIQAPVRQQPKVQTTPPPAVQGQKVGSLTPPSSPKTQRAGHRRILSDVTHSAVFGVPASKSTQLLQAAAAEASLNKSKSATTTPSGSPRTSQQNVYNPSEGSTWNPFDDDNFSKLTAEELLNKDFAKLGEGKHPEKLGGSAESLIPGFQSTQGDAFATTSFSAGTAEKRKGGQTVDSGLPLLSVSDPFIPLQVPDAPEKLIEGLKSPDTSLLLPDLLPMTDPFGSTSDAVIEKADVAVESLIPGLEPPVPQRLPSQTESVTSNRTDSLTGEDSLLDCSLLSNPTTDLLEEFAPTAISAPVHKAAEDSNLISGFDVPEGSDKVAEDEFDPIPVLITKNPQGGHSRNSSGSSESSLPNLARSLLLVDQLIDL
RSK4(Kin.Dom.1-N-terminal), sequence (Q9UK32 1-400 limits assumed): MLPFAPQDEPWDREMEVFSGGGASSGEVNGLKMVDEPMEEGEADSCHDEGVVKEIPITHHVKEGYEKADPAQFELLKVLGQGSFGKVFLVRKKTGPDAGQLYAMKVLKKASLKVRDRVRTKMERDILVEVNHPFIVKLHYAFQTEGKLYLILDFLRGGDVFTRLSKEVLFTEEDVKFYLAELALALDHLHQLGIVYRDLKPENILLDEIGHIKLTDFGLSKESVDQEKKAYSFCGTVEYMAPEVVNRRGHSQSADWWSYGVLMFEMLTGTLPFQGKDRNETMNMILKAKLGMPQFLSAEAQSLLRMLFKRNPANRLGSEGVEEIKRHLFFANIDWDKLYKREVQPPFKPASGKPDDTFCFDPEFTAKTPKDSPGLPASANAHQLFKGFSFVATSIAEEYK

`COc1cc(F)ccc1-c1cc(Nc2cc(CS(C)(=N)=O)ccn2)ncc1F` (stereo not drawn) [VIP152] showed an inhibition at 0.1 µM ([1]; 100 nM, read-out: inhibition of GSK3α relative to control) of 97.1%, a remaining binding at 0.1 µM ([1]; GSK3A, 100 nM, read-out: Percent Control) of 2.9% and a remaining binding at 1 µM ([1]; GSK3A, 1000 nM, read-out: Percent Control) of 4.5%. For the same compound, the “inhibitory capacity against GSK3α” value [2] was “Inhibits”, the inhibition at 10 µM [3] was 22% and the “% Inh.” value [4] was 7%. For the same compound, the inhibition at 10 µM [5] was -22%, the inhibition at 10 µM [6] was 6% and the inhibition at 10 µM [7] was 31%. For the same compound, the remaining binding at 0.1 µM [8] was 100%, the remaining binding at 0.1 µM [9] was 100% and the remaining binding at 0.1 µM [10] was 100%. The remaining binding at 0.1 µM [11] was 96%, the remaining binding at 0.1 µM [12] was 100% and the remaining binding at 1 µM [13] was 47%. The remaining binding at 1 µM [14] was 99%, the remaining binding at 1 µM [15] was 97% and the remaining binding at 1 µM [16] was 3.8%. It also gave a remaining binding at 1 µM [17] of 100%, a remaining binding at 1 µM [18] of 90% and a remaining binding at 1 µM [19] of 97%. The remaining binding at 1 µM [20] was 82%, the remaining binding at 1 µM [21] was 99% and the remaining binding at 1 µM [22] was 15%. The remaining binding at 1 µM [23] was 76%, the remaining binding at 1 µM [24] was 74% and the remaining binding at 1 µM [25] was 62%.
